Results reported in patent publication US20250163484A1, “Methods for Incorporating Azido Groups in Bacterial Capsular Polysaccharides” (PFIZER INC., priority 2022, published 2025).

Key:
[1] = system: S. pneumoniae T14; assay: Growth of S. pneumoniae T14 in fermentation with azido sugar (OD600); format: cell-based, Streptococcus pneumoniae serotype 14
[2] = system: S. pneumoniae T14; format: cell-based, Streptococcus pneumoniae serotype 14; conditions: production medium + Galactose (30 g/L)
Experimental: (§1) FIGS. 1A-1D. Screen for azido sugar incorporation into S. pneumoniae T14 capsule polysaccharide. […] Bacteria were grown until the ΔOD600≥0 for >30 minutes, then lysed with 0.1% NLS for 30 minutes. Growth was measured offline using a spectrophotometer blanked with PBS at 600 nm. (FIG. 1A) azido incorporation into polysaccharide was then quantified via fluorescent labeling (FL) with normalization to refractive index (RI). MaxOD and End Of Fermentation time (EOF) are provided in (FIG. 1B) and (FIG. 1C), respectively. Polysaccharide was extracted using EtOH and CaCl2 and analyzed via SEC-RI for (FIG. 1D) polysaccharide titer. n=1-4, error bars=+/−StDev.
FIGS. 2A-2D Impact of 2AzGlcAc4 concentration on S. pneumoniae T14 growth and poly production in production medium supplemented with Galactose (30 g/L). […] (FIG. 2A) Growth was measured offline using a spectrophotometer blanked with PBS at 600 nm. At the end of fermentation, cultures were lysed with 0.1% NLS for 30 min. and polysaccharide was extracted via EtOH/CaCl2) precipitation. Polysaccharide titer (FIG. 2B) and size (FIG. 2C) were measured via SEC-RI and SEC-MALS, respectively. (FIG. 2D) azido incorporation was then quantified via fluorescent labeling (FL) and normalized to the refractive index (RI). n=3, error bars=+/−StDev.
FIGS. 3A-3E Impact of 2AzGlc concentration on S. pneumoniae T14 growth and polysaccharide production in production medium supplemented with Galactose (30 g/L). […] (FIG. 3A) Growth was measured offline using a spectrophotometer blanked with PBS at 600 nm. Cultures were lysed with 0.1% NLS for 30 min. and polysaccharide was extracted via EtOH/CaCl2) precipitation. Polysaccharide (FIG. 3B/FIG. 3C) titer and (FIG. 3D) size were measured via SEC-RI and SEC-MALS, respectively. (FIG. 3E) azido incorporation was then quantified via fluorescent labeling (FL) and normalized to the refractive index (RI). n=3, error bars=+/−StDev.
We tested the impact of 2AzGlc concentration on S. pneumoniae T14 growth, polysaccharide production, and azido incorporation by growing the bacteria in production media (supplemented with Glucose (dextrose, 30 g/L)) with various concentrations of 2AzGlc (0, 1, 5, 10, 20, 40, and 60 mM).

[3] = Solubility of azido sugar in production medium; format: physicochemical; conditions: production medium supplemented with galactose (30 g/L), aqueous buffer; read-out: limit of solubility
[4] = system: S. pneumoniae T14 capsule polysaccharide; format: cell-based, Streptococcus pneumoniae serotype 14; conditions: 2AzGlcAc4 2.5-10 mM, production medium + Galactose (30 g/L), DMSO 2%
Experimental: as §1
A SEC fluorescence and Refractive index assay (SEC-FL/RI) was used for azide measurement to confirm the incorporation of azide modification.
Click-It Cell Reaction Buffer kit and Alexa Fluor 488 Alkyne were purchased from Invitrogen.
The initial procedure when running the SEC-FL/RI was to prepare the sample to a target concentration of 0.01 mg/m by mixing a pre-diluted polysaccharide to the final target concentration with the Click Reaction mixture. The reaction mixture consisted of 2.67 mM CuSO4, 2.67 mg/mL cell additive reagent, and 20 uM Alexa Fluor Alkyne. This was mixed with the sample at a 3:1 ratio of reaction mixture to sample and incubated in the absence of light. Reactions were transferred to HPLC vials and ran on the SEC-FL/RI HPLC setup. The RI detector (RID) allowed for detection of the polysaccharide while the Fluorescence Detector (FLD) was used to determine the level of fluor incorporated into the polysaccharide sample. The ratio of the two peak areas gave a measurement for the amount of azide incorporated to the polysaccharide.
Later, in addition to the incubation of the sample for thirty minutes, a buffer exchange step was added that washed out the unreacted fluor as well as the reaction matrix reagents in order to improve the baselines of the FLD and RID during the HPLC run. This added greater resolution of the peak associated with the azide functionalized polysaccharide. The assay was useful for relative quantitation of azide incorporation into the polysaccharide but could not quantify an exact numerical concentration. To improve this aspect work was undertaken to use a polysaccharide with known levels of azido functionalization to make a standard curve that varied the % Azido while keeping the polysaccharide mass the same. This was done by mixing the known azido modified poly (polysaccharide) with specific amounts of native (unmodified) polysaccharide. A strong linear fit for the generated standard curve was seen.
The values for percent azide were able to be converted to a μM azide per mM polysaccharide by converting from % azide using the constant polysaccharide concentration.

CC(=O)OC[C@H]1OC(O)[C@H](N=[N+]=[N-])[C@@H](OC(C)=O)[C@@H]1O (stereo partly drawn) [2AzGlcAc2, 3,6-Di-O-acetyl-2-azido-2-deoxy-D-glucopyranose]
growth ([1]; azido sugar 20 mM without DMSO, production medium + Galactose (30 g/L)): strongly inhibited
polysaccharide production ([2]; azido sugar 20 mM without DMSO): strongly inhibited

[N-]=[N+]=N[C@H]1[C@H](O)[C@@H](CO)OC(O)[C@@H]1O (stereo partly drawn) [3AzGlc, 3-azido-3-deoxy-D-glucopyranose]
End Of Fermentation (EOF) time ([1]; screen, azido sugar 1 mM, only in production medium + Galactose): elongated

CC(=O)OC[C@H]1OC(OC(C)=O)[C@H](N=[N+]=[N-])[C@@H](OC(C)=O)[C@@H]1OC(C)=O (stereo partly drawn) [2AzGlcAc4, 1,3,4,6-Tetra-O-acetyl-2-azido-2-deoxy-D-glucopyranose]
solubility [3]: ≤ 1000 µM
impact on growth ([1]; 2AzGlcAc4 2.5, 5, 7.5, 10 mM, production medium + Galactose (30 g/L), DMSO 2%): no impact
FL/RI with increasing concentrations [4]: did not cause an increase
polysaccharide titer ([2]; 2AzGlcAc4 2.5, 5, 10 mM (not 7.5 mM), DMSO 2%): statistically significant reduction
